Measurements published in patent US20030203963A1, “Antimicrobial agent” (priority 2001, published 2003).

What was measured:
Lb. sake A10 = test: Test in cooked sausage meat slurry; format: cell-based, Lactobacillus sake; conditions: for Effect on growth: cooked sausage meat slurry at 8° C., pH 6.2, TSM010605
Text: (§1) 500 g of bologna sausage meat mixture was mixed with 500 g Brain Heart Infusion broth (BHIB) to make a homogeneous slurry. The bologna sausage meat mix comprised (g per kg): lean beef 320; lean pork 202; lard 250; water 40; glucose 5; starch 155; spice mix 3.75; sodium glutamate 0.5; sodium erythorbate 0.545; sodium di-phosphate 3; NaCl 20; sodium nitrite 0.15. 200 g samples of the meat slurry were autoclaved. While the meat was still warm it was re-mixed thoroughly. When the meat had cooled it was inoculated with 2 ml of 10^5 cfu/ml spore or cell suspension, and re-mixed again. Each inoculated meat sample was divided into 3×50 g samples, and 1 ml of either SDW, 2.5% or 5% APP solution (batch number APP 20010215) was added to prepare meat samples containing 0, 500 and 1000 ppm APP. The meat slurry was again shaken thoroughly to ensure even mixing, an initial viable count was taken and the samples incubated at 8° C. Samples were taken at twice-weekly intervals. The pH of the sausage meat slurry was 6.2.

Salm Typhimurium S29 = test: Test in cooked sausage meat slurry; format: cell-based, Salmonella Typhimurium; conditions: for Total inhibition for: cooked sausage meat slurry at 8° C., pH 6.2, TSM010605
Text: as §1

TAVC = test: Inoculated test in raw meat; format: cell-based; conditions: 2000 ppm; inoculated raw meat at 8° C., TRM010620; TAVC 10^6 rising to >10^7 cfu/g
Procedure: Fresh beef steak was purchased from the local butcher, and minced on clean machinery. The raw meat (ca. pH 6.2) was divided into 8×90 samples and inoculated-with 10^3 cfu/ml of test organisms. The meat was mixed thoroughly using a stomacher. 10 g of SDW or 2% APP (Batch number APP20010215) was added, and the meat was again thoroughly mixed. An initial viable count was taken, the meat was incubated at 8° C., and sampled on the following days using non-selective agar (MPCA) and selective agar: XLD for Salmonella; Oxford selective agar (Listeria monocytogenes); and STAA agar (Brochothrix thermosphacta). The pH of the raw meat was pH 5.3.

[1] = Cooked sausage meat slurry at 8° C. pH 6.2, (1000)

Structure (SMILES): O=C1CC(CO)OC=C1O (stereo not shown) [APP, Ascopyrone P]
- Effect on growth (Lb. sake A10; 500 ppm): No effect with 500 and 1000 ppm
- Effect on growth (Lb. sake A10; 1000 ppm): No effect with 500 and 1000 ppm
- No inhibition (effect on growth of target organism by APP) (Lb. sake A10; [1]): Lb. sake (1000)
- Total inhibition for (Salm Typhimurium S29; 500 ppm): Total inhibition by 500 for 25 d
- Total inhibition for (Salm Typhimurium S29; 1000 ppm): Total inhibition by 1000 ppm for >38 d
- Total inhibition (effect on growth of target organism by APP) (Salm Typhimurium S29; [1]): S. Typhimurium
- Effect of APP (TAVC): No significant effect
